Assay results from publication PMC3175485 (2011).

Target: PDE4D3 (Homo sapiens, UniProt Q08499)
Test: biochemical

Sequence of PDE4D3 (Q08499 1-673 isoform Q08499-2): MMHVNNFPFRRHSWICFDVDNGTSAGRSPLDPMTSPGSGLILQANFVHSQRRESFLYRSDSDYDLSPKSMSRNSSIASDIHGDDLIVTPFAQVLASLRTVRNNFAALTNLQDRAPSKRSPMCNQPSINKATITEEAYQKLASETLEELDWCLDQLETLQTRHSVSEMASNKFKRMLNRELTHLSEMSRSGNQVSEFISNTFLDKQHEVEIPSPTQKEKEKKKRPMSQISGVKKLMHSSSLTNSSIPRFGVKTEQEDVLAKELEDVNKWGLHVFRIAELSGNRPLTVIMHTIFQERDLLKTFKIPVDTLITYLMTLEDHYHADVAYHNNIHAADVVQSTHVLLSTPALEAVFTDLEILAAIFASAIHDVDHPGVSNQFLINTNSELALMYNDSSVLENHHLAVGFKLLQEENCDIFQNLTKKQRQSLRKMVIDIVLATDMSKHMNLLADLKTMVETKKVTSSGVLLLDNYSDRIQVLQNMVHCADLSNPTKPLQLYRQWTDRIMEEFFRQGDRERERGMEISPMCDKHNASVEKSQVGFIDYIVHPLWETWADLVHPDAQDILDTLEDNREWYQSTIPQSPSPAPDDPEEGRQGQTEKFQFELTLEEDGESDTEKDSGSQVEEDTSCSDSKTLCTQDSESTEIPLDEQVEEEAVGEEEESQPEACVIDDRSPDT

COc1ccc(-c2cc(C(F)F)nn2-c2ccc(S(N)(=O)=O)cc2)cc1F [deracoxib]
IC50: 3.6 ± 0.5 µM
